Columns and labels:
[1] = tested on: elastase release in whole blood over endothelial cell monolayer; assay: Augmentation of elastase release in whole blood by HUVEC monolayer; type: cell-based, human; details: whole blood with endotoxin
Method: An assay similar to that described in Example 2 was developed for neutrophil elastase in the same plasma samples (measured as the complex between elastase, and α-1-antitrypsin) using a murine monoclonal antibody (HEL 1076) to elastase as capture and biotinylated murine monoclonal antibody (HAT 1099) as detector. The useful range of this assay was 0.05 to 5 nM complex. These antibodies were obtained by immunizing mice with human neutrophil elastase, human α-1-antitrypsin (Athens Research and Technology, Athens, Ga.) and a complex of both using the method detailed in Example 2. Antibodies were screened for their ability to react with native and complexed antigen. Antibodies were purified from ascites using protein G (Pharmacia, Piscataway, N.J.) affinity chromatography and biotinylated using NHS-LC-biotin (Pierce). In addition to the inhibition of TNF release, calmodulin also augmented elastase release similar to that observed with the endothelial cell monolayer (FIG. 1, authentic calmodulin; FIG. 2, purified endothelial cell calmodulin).
In addition, elastase release in whole blood measured as the complex of elastase with α-1 protease inhibitor (α-1 antitrypsin) was augmented by the presence of an endothelial cell monolayer as shown in FIG. 11 (n=8). […]

[2] = tested on: endothelial inhibition of LPS-induced TNF release in whole blood; assay: Endothelial (HUVEC) inhibition of LPS-induced TNF release in whole blood, endothelium treated with enzyme inhibitors; type: cell-based, human
Method: (§1) Blood from healthy volunteers was drawn from the antecubital vein into a heparinized syringe (10 U/ml final; UpJohn, Kalamazoo, Mich.). 24-well culture plates (Costar, Cambridge, Mass.) were coated with 2% (w/v) gelatin (Sigma) and washed three times with Hanks balanced salt solution (HBSS) (Gibco BRL, Gaithersburg, Md.). Only the center eight wells were used to minimize evaporation. Then, 200 μl of blood was pipetted into each well. For comparative experiments involving endothelial cell monolayers, endothelial cells were seeded onto gelatin-coated wells at 3-5×10^5 cells per well 48 hours prior to experimentation. These wells were washed three times with HBSS and heparinized whole blood added as above. In most cases, the same plate would contain wells with and without endothelium for comparison purposes.
(§2) Test reagents suspended in HBSS (8 to 10 μl) were added to the wells immediately after the blood. Plates were incubated at 37° C. in room air/5% CO2 on an orbital shaker at 150 rpm; incubations were four hours unless otherwise noted. The blood then was transferred to microcentrifuge tubes and centrifuged at 500× g for 10 minutes. The resulting platelet-poor plasma was collected and assayed for TNF immediately, as per Example 2 or stored frozen at -70° C. until use.
Endothelial cells were treated with inhibitors of enzymes responsible for production of prostaglandins and nitric oxide. […]

[3] = tested on: LPS-induced TNF release in whole blood; assay: LPS-induced TNF release in whole blood (TNF ELISA); type: cell-based, human; details: for inhibition of LPS-induced TNF release: 10^-6 M, added directly to whole blood
Method: Immunoreactive TNF was measured using a sandwich ELISA sensitive to ≈0.1 ng/ml TNF. 96-well Immulon IV microtiter plates (Dynatech, Chantilly, Va.) were coated overnight at 4° C. with a monoclonal anti-TNF antibody, TNF 1286 or TNF 1311 (5 μg/ml in TBS, 50 μl per well).
The next morning the ELISA plates were washed three times with TBS with 0.1% (v/v) Tween 20 (Sigma) and blocked for one hour with 1% BSA in TBS. Plates were then washed three times. Plasma samples were diluted 1:5 in 0.1% BSA in TBS, and 50 μl/well pipetted onto the plates and allowed to incubate at 37° C. for one hour. TNF standards were made up by addition of known amounts of recombinant human TNF-α (Upstate Biologicals Inc., Lake Placid, N.Y.) to pooled heparinized normal plasma diluted 1:5 in TBS/BSA. All samples and standards were assayed in duplicate. Plates were washed three times and biotinylated goat anti-TNF antibody or biotinylated monoclonal TNF 1289 (2 μg/ml in 0.1% BSA in TBS, 50 μl/well) was applied and incubated at 37° C. for one hour. Plates were washed three times and streptavidin-alkaline phosphatase (Gibco BRL, Grand Island, N.Y.) (0.025 μg/ml in 0.1% BSA in TBS, 50 μl/well) was applied and incubated at 37° C. for one hour. Following a final four washes, an amplified substrate (Gibco BRL) was applied according to the manufacturer's directions. Plates were read at 492 nm on a microtiter plate reader (Molecular Devices, Palo Alto, Calif.) and values obtained by comparing unknowns to a standard curve using a four-parameter fit. The useful range of this assay was 1-50 ng/ml.
as §1, §2
In most experiments, LPS (from E. coli strain 055:B5, Difco) was used to stimulate TNF release. Other agonists used were zymosan (Sigma, St. Louis, Mo.), muramyl dipeptide (Sigma), recombinant human interferon-γ (Mallinckrodt, Paris, Ky.), and recombinant human interleukin-1β (Collaborative Research, Bedford, Mass.). In some experiments, prostaglandin E2 (PGE2) and the stable prostacyclin analogue, carbacyclin (both from Cayman Chemical, Ann Arbor, Mich.) were added just before the LPS. These were dissolved as a 2.84×10^-3 M stock solution in DMSO and diluted in HBSS; buffer controls with the same concentrations of DMSO were assayed in parallel.

[4] = tested on: TNF release in whole blood; assay: TNF release in whole blood evoked by other agonists; type: cell-based, human; details: 0.3 to 1 μg/ml
Method: as §1, §2
In most experiments, LPS (from E. coli strain 055:B5, Difco) was used to stimulate TNF release. […]

[5] = tested on: TNF release in whole blood in response to E. coli; assay: TNF release in whole blood in response to gentamicin-killed E. coli; type: cell-based, human; details: data not shown
Method: Whole gentamicin-killed E. coli were examined as another stimulus that probably evokes TNF release by several different pathways; for example, they serve as a phagocytic stimulus and also activate complement components. A single colony of E. coli serotype B7 086a61 (ATCC#33985) on an LB plate was cultured overnight in LB Medium (Difco, Detroit, Mich.). The next morning the cells were washed three times in Hanks balanced salt solution (HBSS) and then resuspended in HBSS to 5.7×10^9 cells per ml. Before addition to blood, bacteria were killed by treatment with gentamicin sulfate (Elkins-Sinn, Cherry Hill, N.J.), 500 μg/ml for one hour. TNF release assays were performed according to procedures given in Example 2.

[6] = tested on: human peripheral blood mononuclear cells (PBMC); assay: LPS-induced TNF production by isolated peripheral blood mononuclear cells; type: cell-based; details: PGE2 10^-7 M, n=4, read-out: inhibition of TNF production by isolated PBMCs
Method: To establish whether the inhibitory effect of the endothelium was exerted directly on monocytes or required an intermediary blood cell, human peripheral blood mononuclear cells (PBMC) were prepared from freshly drawn heparinized blood by density-gradient separation on Ficoll-Hypaque (Mono-Poly Resolving Medium, Flow Laboratories, McLean, Va.). Furmaniak-Kazmierczak, et al., "Protein S enhances C4b binding protein interaction with neutrophil," Blood 81:405-411 (1993). Isolated PBMC were washed three times with RPMI 1640 (Mediatech) and resuspended at a concentration of 3-5×10^6 cells/ml. 200 μl aliquots were added to 24-well tissue culture plates, incubated, and assayed as described with whole blood.
Mononuclear cells (4.47±0.94×10^6 /ml) isolated from fresh whole blood released TNF dose-dependently in response to LPS in a manner similar to whole blood.

[7] = tested on: cultured HUVECs; assay: Prostaglandin release from cultured HUVECs (competitive enzyme immunoassay); type: cell-based, human; details: ASA 10^-4 M for 1 hour
Method: Endothelial cells were treated with inhibitors of enzymes responsible for production of prostaglandins and nitric oxide. In each case, endothelial cells were pretreated by addition of the inhibitor to the culture medium for one hour, before the addition of blood and the TNF-provoking agonist (e.g., LPS) to the wells. Acetylsalicylic acid (ASA, aspirin), (Sigma, St. Louis, Mo.), which is an irreversible inhibitor of the cyclooxygenase enzyme, was removed after the incubation by washing the endothelial cells three times with Hanks balanced salt solution (HBSS) before adding the blood. Indomethacin and N^G -nitro-L-arginine methyl ester (L-NAME; Sigma), which are competitive inhibitors of cyclooxygenase, and nitric oxide synthase, respectively, were added to the HBSS wash solution and again directly to the blood as soon as it had been pipetted into the wells, so that the target enzyme would have no opportunity to escape inhibition. With indomethacin (which has been reported to increase TNF release from macrophages by blocking autocrine production of PGE2), controls were run in which indomethacin was added to the blood in the absence of endothelium.
Therefore, endothelial monolayers were treated with ASA (10^-4 M for 1 hour), an irreversible cyclooxygenase inhibitor. ASA attenuated the inhibitory activity, but by less than 40% of the total inhibition. […]

[8] = tested on: elastase release in whole blood over porcine aortic segments; assay: Elastase release in whole blood over pig aorta segments in situ; type: cell-based; details: ASA pretreatment; intact or denuded segment
Method: (§3) To exclude the possibility that the inhibitory activity of endothelial monolayers was merely an artifact of tissue culture, experiments were performed using intact endothelium in situ in segments of porcine aorta. Normal farm pigs (Spotted Polland) weighing 30-35 kg were euthanized with pentobarbital and the thoracoabdominal aorta removed aseptically. The harvested aorta was rinsed in HBSS containing penicillin 50 IU/ml and streptomycin 50 μg/ml. The aorta was then opened longitudinally along its dorsal surface. The endothelial cell surface was left intact, or denuded mechanically by scraping gently ten times with a metal spatula. The opened aorta was then clamped into a multi-well plexiglass template device, such that the intimal surface of the aorta formed the bottom of the well. The wells were washed with HBSS and blood added and processed exactly as above for 24 well plates.
(§4) As with cultured endothelial cells, TNF release was inhibited when whole blood was incubated in the presence of an intact aortic endothelial surface as compared to an adjacent mechanically denuded segment of vessel (FIG. 21; n=6).

[9] = tested on: inhibitory activity of porcine aortic endothelium on TNF release in whole blood; assay: TNF release in whole blood over pig aorta segments in situ; type: cell-based; details: ASA pretreatment of vessel wall
Method: as §3, §4

COc1ccc2c(c1)c(CC(=O)O)c(C)n2C(=O)c1ccc(Cl)cc1 [indomethacin, Indomethacin]
effect on endothelial augmentation of elastase release [1]: not changed | effect on inhibitory effect of endothelial cells in suspension on TNF release ([2]; endothelial cells in suspension): did not block | effect on LPS-induced TNF release in the absence of endothelium ([3]; indomethacin added to blood, no endothelium): marginally higher TNF release

CC(=O)N[C@H]1C(O)O[C@H](CO)[C@@H](O)[C@@H]1O[C@H](C)C(=O)N[C@@H](C)C(=O)N[C@H](CCC(=O)O)C(N)=O (some centres unmarked) [Muramyl dipeptide, muramyl dipeptide]
TNF release agonist activity alone [4]: weak agonists

Polymyxin B
effect on TNF response to E. coli [5]: unaffected | effect on TNF response to LPS ([3]; whole blood, data not shown): dose-dependently antagonized

CCCCC[C@H](O)/C=C/[C@H]1[C@H](O)CC(=O)[C@@H]1C/C=C\CCCC(=O)O [PGE2, prostaglandin E2]
inhibition at 0.1 µM [6]: 63.9 ± 9.6% | inhibition of LPS-induced TNF release ([3]; no endothelial cells): almost complete suppression | inhibition at 0.1 µM ([3]; Homo sapiens, PGE2 10^-7 M, n=12, read-out: inhibition of whole-blood TNF production): 83.6 ± 2.7% | potency relative to carbacyclin (inhibition of LPS-induced TNF release) ([3]; whole blood, no endothelial cells): at least 10 fold

COC(=O)[C@@H](N)CCCN=C(N)N[N+](=O)[O-] [L-NAME, N^G -nitro-L-arginine methyl ester]
effect on endothelial inhibition of TNF release ([2]; L-NAME 10^-4 M): No reduction

CC(=O)Oc1ccccc1C(=O)O [ASA, Acetylsalicylic acid]
PGE2 release from cultured HUVECs after treatment ([7]; untreated 0.93 nM, 0.2 nM is limit of detection): < 0.2 nM | prostacyclin release from cultured HUVECs after treatment ([7]; untreated 4.0 nM): 0.26 nM | effect on stimulation of elastase release by aortic segments [8]: did not significantly alter | effect on endothelial augmentation of elastase release [1]: not changed | effect on TNF-inhibitory activity of aortic endothelium [9]: partially reduced

CCCCC[C@H](O)/C=C/[C@@H]1[C@H]2C/C(=C/CCCC(=O)O)C[C@H]2C[C@H]1O [carbacyclin]
inhibition of LPS-induced TNF release ([3]; no endothelial cells): almost complete suppression

Source: patent publication US5698518A, “Method for regulating inflammation and tumor growth with calmodulin, calmodulin analogues or calmodulin antagonists” (Oklahoma Medical Research Foundation, priority 1994, dated 1997)
